System: KRAS-mutant PDC complex spheroid viability
Experiment: Anticancer human tumor 186277-243-T-J2-PDC patient-derived colon adenocarcinoma cell line growth inhibition [KRAS2]
Settings: for IC50: curve of first compound; for viability, T/C: stronger effect = lower value
Outline: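 KRAS-mutant tumor cells were grown as spheroids with HUVEC endothelial cells and human MSCs as stroma. Targeted agents were tested alone and with KRAS pathway inhibitors. Doses started at or near clinical Cmax, or 10 microM, descending half-log.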

[1] = second compound 0.1 µM, first compound 0.0316 µM
[2] = second compound 0.1 µM, first compound 0.1 µM
[3] = second compound 0.1 µM, first compound 0.316 µM
[4] = second compound 0.1 µM, first compound 1 µM
[5] = second compound 0.1 µM, first compound 3.16 µM
[6] = second compound 0.1 µM, first compound 10 µM
[7] = second compound 0.316 µM, first compound 0.0316 µM
[8] = second compound 0.316 µM, first compound 0.1 µM
[9] = second compound 0.316 µM, first compound 0.316 µM
[10] = second compound 0.316 µM, first compound 1 µM
[11] = second compound 0.316 µM, first compound 3.16 µM
[12] = second compound 0.316 µM, first compound 10 µM
[13] = second compound 1 µM, first compound 0.0316 µM
[14] = second compound 1 µM, first compound 0.1 µM
[15] = second compound 1 µM, first compound 0.316 µM
[16] = second compound 1 µM, first compound 1 µM
[17] = second compound 1 µM, first compound 3.16 µM
[18] = second compound 1 µM, first compound 10 µM
[19] = second compound 3.16 µM, first compound 0.0316 µM
[20] = second compound 3.16 µM, first compound 0.1 µM
[21] = second compound 3.16 µM, first compound 0.316 µM
[22] = second compound 3.16 µM, first compound 1 µM
[23] = second compound 3.16 µM, first compound 3.16 µM
[24] = second compound 3.16 µM, first compound 10 µM
[25] = second compound 10 µM, first compound 0.0316 µM
[26] = second compound 10 µM, first compound 0.1 µM
[27] = second compound 10 µM, first compound 0.316 µM
[28] = second compound 10 µM, first compound 1 µM
[29] = second compound 10 µM, first compound 3.16 µM
[30] = second compound 10 µM, first compound 10 µM
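Wherever viability, T/C is given: viability read after seven days of compound exposure; 100% = DMSO vehicle-treated spheroids so lower means less viable.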

| SMILES | IC50 (second compound 0.1 µM) | IC50 (second compound 0.316 µM) | IC50 (second compound 1 µM) | IC50 (second compound 3.16 µM) | IC50 (second compound 10 µM) | viability, T/C [1] | viability, T/C [2] | viability, T/C [3] | viability, T/C [4] | viability, T/C [5] | viability, T/C [6] | viability, T/C [7] | viability, T/C [8] | viability, T/C [9] | viability, T/C [13] | viability, T/C [14] | viability, T/C [19] | viability, T/C [20] | viability, T/C [25] | viability, T/C [26] | also measured |
| --- | --- | --- | --- | --- | --- | --- | --- | --- | --- | --- | --- | --- | --- | --- | --- | --- | --- | --- | --- | --- | --- |
| CC(C)NCC(C(=O)N1CCN(c2ncnc3c2C(C)CC3O)CC1)c1ccc(Cl)cc1 (stereo not given) + CNCc1ccccc1-c1csc(C(C)Nc2nc(C)nc3cc(OC)c(OC)cc23)c1 | 585 nM | 469 nM | 298 nM | < 31.6 nM | < 31.6 nM | 111% | 106% | 61.2% | 37.8% | 24.1% | 11.2% | 121% | 96.6% | 60.3% | 109% | 92.4% | 0.41% | 9.82% | 0.14% | 0.12% | viability, T/C [10]: 29.4%; viability, T/C [11]: 19.6%; viability, T/C [12]: 10.6%; viability, T/C [15]: 44.9%; viability, T/C [16]: 24.1%; viability, T/C [17]: 13.3%; viability, T/C [18]: 8.81%; viability, T/C [21]: 0.48%; viability, T/C [22]: 1.02%; viability, T/C [23]: 0.58%; viability, T/C [24]: 0.47%; viability, T/C [27]: 0.12%; viability, T/C [28]: 0.12%; viability, T/C [29]: 0.13%; viability, T/C [30]: 0.2% |
| CC(C)n1nc(-c2ccc3oc(N)nc3c2)c2c(N)ncnc21 + CNCc1ccccc1-c1csc(C(C)Nc2nc(C)nc3cc(OC)c(OC)cc23)c1 | 5.68 nM | 4.02 nM | 5.06 nM | 1.17 nM | < 0.316 nM | 28.6% | 16.6% |  |  |  |  | 23.4% | 19.7% |  | 22.9% | 14.9% | 8.24% | 1.61% | 0.1% | 0.16% | viability, T/C (second compound 0.1 µM, first compound 0.000316 µM): 108%; viability, T/C (second compound 0.1 µM, first compound 0.001 µM): 92.5%; viability, T/C (second compound 0.1 µM, first compound 0.00316 µM): 57%; viability, T/C (second compound 0.1 µM, first compound 0.01 µM): 40.3%; viability, T/C (second compound 0.316 µM, first compound 0.000316 µM): 98.8%; viability, T/C (second compound 0.316 µM, first compound 0.001 µM): 80.8%; viability, T/C (second compound 0.316 µM, first compound 0.00316 µM): 54.7%; viability, T/C (second compound 0.316 µM, first compound 0.01 µM): 32.9%; viability, T/C (second compound 1 µM, first compound 0.000316 µM): 96.3%; viability, T/C (second compound 1 µM, first compound 0.001 µM): 88.8%; viability, T/C (second compound 1 µM, first compound 0.00316 µM): 55.8%; viability, T/C (second compound 1 µM, first compound 0.01 µM): 37.7%; viability, T/C (second compound 3.16 µM, first compound 0.000316 µM): 63.9%; viability, T/C (second compound 3.16 µM, first compound 0.001 µM): 55.9%; viability, T/C (second compound 3.16 µM, first compound 0.00316 µM): 14%; viability, T/C (second compound 3.16 µM, first compound 0.01 µM): 16.8%; viability, T/C (second compound 10 µM, first compound 0.000316 µM): 0.14%; viability, T/C (second compound 10 µM, first compound 0.001 µM): 0.13%; viability, T/C (second compound 10 µM, first compound 0.00316 µM): 0.11%; viability, T/C (second compound 10 µM, first compound 0.01 µM): 0.1% |
| CC1(C)CCC(CN2CCN(c3ccc(C(=O)NS(=O)(=O)c4ccc(NCC5CCOCC5)c([N+](=O)[O-])c4)c(Oc4cnc5[nH]ccc5c4)c3)CC2)=C(c2ccc(Cl)cc2)C1 + CNCc1ccccc1-c1csc(C(C)Nc2nc(C)nc3cc(OC)c(OC)cc23)c1 | 2130 nM | 2260 nM | 2160 nM | 90.7 nM | < 31.6 nM | 120% | 102% | 107% | 110% | 19.2% | 1.52% | 115% | 117% | 117% | 126% | 125% | 80.2% | 44.8% | 0.17% | 0.16% | viability, T/C [10]: 119%; viability, T/C [11]: 22.1%; viability, T/C [12]: 1.59%; viability, T/C [15]: 112%; viability, T/C [16]: 116%; viability, T/C [17]: 17.2%; viability, T/C [18]: 0.88%; viability, T/C [21]: 29.2%; viability, T/C [22]: 7.62%; viability, T/C [23]: 0.22%; viability, T/C [24]: 0.13%; viability, T/C [27]: 0.14%; viability, T/C [28]: 0.12%; viability, T/C [29]: 0.12%; viability, T/C [30]: 0.2% |

Source: PubChem BioAssay AID1963875 (Molecular Pharmacology Branch, DTP, NCI, 2024)
